Consider 15 compounds from patent US7423114B2, “GD2 ligands” (McGill University, priority 2002, dated 2008).

One assay deals with mAb 3F8-GD2 interactions. Briefly: Competitive ELISA: inhibition of mAb 3F8 binding to immobilized GD2 by peptides. Set-up: key to Activity in SAR and deletion analysis (inactive mark): peptides marked by * are inactive. The settings on record: for % Inhibition of mAb 3F8-GD2 interactions: peptides 50 μg/well, 1 hour before mAb 3F8, immobilized GD2, no peptide = 0%, no mAb 3F8 = 100%, mean ± SEM of 5 experiments; for Activity in SAR and deletion analysis (inactive mark): Table 1 domains/peptides. As to the method: Detection of GD2 or GM1 by ELISA: 12.5 ng/well of ganglioside (GD2, Advanced Immunochemicals or GM1) were immobilized by drying onto PVC 96-well plates (Falcon), followed by blocking with PBS-0.5% BSA for one hour. Then, anti-GD2 mAb 3F8 or biotin-CTB were added for 10 minutes. The plate was washed three times with PBS-0.5% BSA and incubated 60 minutes with horseradish peroxidase (HRP)-conjugated anti-mouse antibody or HRP-conjugated-avidin. After three washes with PBS-0.5% BSA and two with PBS, the colorimetric substrate ABTS was added and the plate read at 414 nm on a Biorad 550 plate reader. Assessment of peptide-GD2 interaction by competitive ELISA: ELISAs were as described above, except that peptides (50 μg/well, in PBS) were added to the wells for 1 hour before anti-GD2 mAb 3F8 or anti-GM1 cholera toxin-B. Selectivity of inhibition is controlled by lack of effect upon GM1-CTB interactions. […] No competitor peptide added or control irrelevant peptide added were standardized as 100% binding. […] Inhibition of mAb 3F8 bindng to immobilized GD2 by peptides, measured by competitive ELISA. No peptide or control peptide treatments are standardized as 0% inhibition. No mAb 3F8 treatment is standardized as 100% inhibition. Average of 5 […] experiments, n=4 in each experiment. Mean±SEM.
(In general: An ELISA detects its analyte on a solid surface through an enzyme-linked reagent.)

In a further assay the target is T1, human recombinant CD45 (Homo sapiens, UniProt P08575).
T1 construct: purchased BioMol
T1 sequence (P08575 26-1306): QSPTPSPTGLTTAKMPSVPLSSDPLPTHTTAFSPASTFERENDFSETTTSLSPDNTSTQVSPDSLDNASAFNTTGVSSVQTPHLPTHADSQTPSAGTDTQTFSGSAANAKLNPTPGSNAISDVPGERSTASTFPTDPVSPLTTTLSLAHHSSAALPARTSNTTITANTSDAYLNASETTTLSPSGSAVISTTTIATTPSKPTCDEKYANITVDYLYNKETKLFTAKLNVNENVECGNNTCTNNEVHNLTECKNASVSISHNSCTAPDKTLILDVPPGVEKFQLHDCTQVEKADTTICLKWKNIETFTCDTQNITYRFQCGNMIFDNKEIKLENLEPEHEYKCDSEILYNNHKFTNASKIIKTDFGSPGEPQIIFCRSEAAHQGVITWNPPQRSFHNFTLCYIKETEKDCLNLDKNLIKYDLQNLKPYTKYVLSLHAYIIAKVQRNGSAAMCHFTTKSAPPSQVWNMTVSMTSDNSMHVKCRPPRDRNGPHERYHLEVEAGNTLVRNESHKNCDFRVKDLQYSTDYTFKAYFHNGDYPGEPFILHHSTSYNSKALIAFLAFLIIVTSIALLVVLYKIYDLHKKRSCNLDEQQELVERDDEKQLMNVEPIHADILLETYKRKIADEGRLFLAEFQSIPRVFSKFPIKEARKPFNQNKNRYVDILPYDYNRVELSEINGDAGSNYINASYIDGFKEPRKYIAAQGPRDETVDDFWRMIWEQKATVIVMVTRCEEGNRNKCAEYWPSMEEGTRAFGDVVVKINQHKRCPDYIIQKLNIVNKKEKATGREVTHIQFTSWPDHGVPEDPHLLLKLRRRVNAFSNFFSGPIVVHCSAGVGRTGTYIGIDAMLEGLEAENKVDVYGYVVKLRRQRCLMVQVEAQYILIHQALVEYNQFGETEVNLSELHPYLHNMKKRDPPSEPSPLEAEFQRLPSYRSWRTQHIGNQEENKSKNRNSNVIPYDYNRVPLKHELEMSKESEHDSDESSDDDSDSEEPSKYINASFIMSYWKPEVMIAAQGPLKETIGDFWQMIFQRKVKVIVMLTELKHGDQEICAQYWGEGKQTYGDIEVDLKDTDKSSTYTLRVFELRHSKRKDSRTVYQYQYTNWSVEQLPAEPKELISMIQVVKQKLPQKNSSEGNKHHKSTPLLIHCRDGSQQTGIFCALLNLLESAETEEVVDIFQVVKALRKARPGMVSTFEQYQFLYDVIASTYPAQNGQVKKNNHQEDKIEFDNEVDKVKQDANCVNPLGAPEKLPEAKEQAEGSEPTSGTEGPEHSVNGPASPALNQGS
Briefly: In vitro CD45 phosphatase assay. It is filed as biochemical. The settings on record: gangliosides 16.7 μM, pp60Src phosphoregulatory peptide substrate. As to the method:
In vitro CD45 phosphatase assay: human recombinant CD45 enzyme (BioMol, 75 units/well) was preincubated in the absence (negative control) or presence of sodium orthovanadate (positive control) or various gangliosides (16.7 μM) for 20 minutes at room temperature in half-volume 96-well microtiter plates. A CD45-specific substrate (pp60^Src C-terminal phosphoregulatory peptide, 200 μM) was then added for 20 minutes at 30° C., afterwhich the reaction was stopped and quantified with BioMol Green reagent. Plates were read at 620 nm with a Biorad 550 platew reader.

The target of assay [1] is T2, purified p56^Lck tyrosine kinase (Homo sapiens, UniProt P06239).
T2 construct: purchased Upstate Biotechnology
T2 sequence (P06239 whole entry): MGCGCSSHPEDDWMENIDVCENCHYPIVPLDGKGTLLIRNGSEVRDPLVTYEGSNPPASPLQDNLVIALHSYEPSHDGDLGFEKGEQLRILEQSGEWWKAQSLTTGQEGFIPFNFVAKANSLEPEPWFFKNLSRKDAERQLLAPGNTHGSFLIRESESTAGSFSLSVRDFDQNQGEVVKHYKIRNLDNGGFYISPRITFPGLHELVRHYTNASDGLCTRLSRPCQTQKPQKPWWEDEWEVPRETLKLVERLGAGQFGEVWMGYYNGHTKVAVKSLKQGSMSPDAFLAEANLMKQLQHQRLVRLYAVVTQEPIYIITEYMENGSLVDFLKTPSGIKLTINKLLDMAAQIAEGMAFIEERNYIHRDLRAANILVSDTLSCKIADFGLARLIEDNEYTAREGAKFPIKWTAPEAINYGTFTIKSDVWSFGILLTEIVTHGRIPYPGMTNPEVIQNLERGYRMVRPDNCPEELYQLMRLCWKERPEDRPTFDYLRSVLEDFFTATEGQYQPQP
Briefly: Effect of exogenous gangliosides on in vitro kinase activity of purified p56Lck. It is filed as biochemical. Conditions: control assays. As to the method:
The kinase activity of p56^Lck was evaluated by measuring the incorporation of ^32PO4 in a peptidic p56^Lck substrate over time, with or without GD2 or GM1. Presence of GD2, but not GM1, can positively alter the kinetics of p56^Lck kinase activity. Activity standardized to untreated p56^Lck at the 20 minute time point. Shown are averages of 3 to 5 assays±SEM.
Effect of exogenous GD2 on p56^Lck in vitro kinase assay: chromatographically purified p56^Lck tyrosine kinase (Upstate Biotechnology) was incubated on ice for 10 minutes in kinase buffer (100 mM Tris-HCl, pH 7.2, 125 mM MgCl2, 25 mM MnCl2, 2 mM EGTA, 150 μM ATP, 0.25 mM sodium orthovanadate, 2 mM DTT) with or without ˜20 fold molar excess of ganglioside and 10 μCi [γ-^32P]ATP. Then 10 μg of the Src kinase substrate peptide p34^cdc2(6-20) (Upstate Biothechnology) was added to the mix and incubated at room temperature for the times indicated, after which the reaction was stopped by addition of 100 μM iodoacetamide and by precipitation of proteins with final 10% TCA. The supematant (containing the phosphorylated peptide substrate, not precipitated by TCA) was spotted on a P81 paper (Whatman) and washed three times with 0.75% phosphoric acid and once with acetone. The [^32P]-peptide content was quantified using a Storm 840 phosphorimager with ImageQuant software.

A further assay relates to EL4 GD2^positive cells. Briefly: Intracellular calcium by flow cytometry (Rhod-2 AM). It is filed as cell-based, mouse. The settings on record: PP1 10 μM, EL4 GD2positive cells. The method, then: (c) Effect of GD2 ligands on intracellular calcium concentrations. Resting EL4 GD2positive cells were treated with mAb 3F8 (13 nM), control mouse IgG (mIg) or the calcium ionophore A23187. Intracellular calcium concentration was evaluated over time by flow cytometry using the calcium-sensitive fluorophore Rhod-2 AM. mAb 3F8 can induce strong, sustainable calcium changes withing 5 minutes, while control mouse IgG has no effect. […] Shown are averages of 4 independent assays ± SEM.
Intracellular calcium studies: cells (1×10^6 per sample) were washed with Ringer's solution (155 mM NaCl, 4.5 mM KCl, 2 mM CaCl2, 1 mM MgCl2, 10 mM D-glucose, 5 mM HEPES) and resuspended in 1 ml Ringer's containing 10 μM p56^Lck inhibitor PP1 (BioMol) or vehicle for 15 minutes at 37° C. Then 5 μM Rhod-2AM (Molecular Probes) was then added to the cells and incubated for 30 minutes at room temprature with mild agitation. Cells were washed once in Ringer's, resuspended in 1 ml Ringer's and incubated for 30 minutes, after which cells were stimulated with the indicated ganglioside ligands (or calcium ionophore A23187 as control) and analyzed over a 30 minute period for intracellular Ca^2+ using a flow cytometer (Becton-Dickinson).
In general terms: A change in cytosolic calcium serves as a functional read-out for many receptors and channels.

“Also recorded” adds a separate entry of the source.

On to “C G G I T N Y N S A C (CGGITNYNSAC) [Pep 52]”, for which the “% Inhibition of mAb 3F8-GD2 interactions” value in the assay with mAb 3F8-GD2 interactions was 30.17 ± 2.69%. On the same count and under the same terms, then C I A N Y N T C (CIANYNTC) [Pep 60], with 30.94 ± 3.53%. As for GD1a, the “Inhibition of CD45 phosphatase activity” value on human recombinant CD45 is listed as 50%. As to C G GI A N Y N C [Pep 58], the “% Inhibition of mAb 3F8-GD2 interactions” value in the assay with mAb 3F8-GD2 interactions came out at 47.60 ± 4.26%. Same read-out and setting: then C T N Y G V H C (CTNYGVHC) [Pep 55], with 12.23 ± 4.41%. “YCTNYGVHCY [core matches Pep 55 with added terminal Y residues]”: the “Activity in SAR and deletion analysis (inactive mark)” value (“Activity in SAR and deletion analysis” below) in the assay with mAb 3F8-GD2 interactions is on record as “*”.

On to G G I A N Y N T S (GGIANYNTS) [Pep 57], for which, in the assay with mAb 3F8-GD2 interactions, the “Activity in SAR and deletion analysis” value is reported as “*”; the “% Inhibition of mAb 3F8-GD2 interactions” value turned out to be 4.33 ± 5.23%. On to “G G I T N Y N S A L M (GGITNYNSALM) [Pep 51]”, for which, in the assay on mAb 3F8-GD2 interactions, the “Inhibition of GD2-mAb 3F8 interactions in ELISA, in words” value is “can also act as a competitive inhibitor” and the “% Inhibition of mAb 3F8-GD2 interactions” value came to 44.96 ± 1.57%. In the case of C G GI A N Y N T S C [Pep 59], in the assay with mAb 3F8-GD2 interactions, the “% Inhibition of mAb 3F8-GD2 interactions” value came out at 48.83 ± 5.01%. On to phosphatidylcholine, for which the “p56Lck kinase activity upon addition of exogenous lipid, in words” value in assay [1] is given as “not altered”. For the compound “YCTNYGVCY [core matches Pep 56 with added terminal Y residues]”, in the assay with mAb 3F8-GD2 interactions, the “Activity in SAR and deletion analysis” value was “*”. In the case of C T N Y G V C (CTNYGVC) [Pep 56], the “% Inhibition of mAb 3F8-GD2 interactions” value with mAb 3F8-GD2 interactions came out at 14.13 ± 5.43%. Still for that read-out and setting: then C I T N Y N S C (CITNYNSC) [Pep 53], with 24.74 ± 3.29%.

Regarding C G G I T N Y N C (CGGITNYNC) [Pep 54], the “% Inhibition of mAb 3F8-GD2 interactions” value in the assay with mAb 3F8-GD2 interactions was 40.34 ± 3.17%.

Consider `Cc1ccc(-c2nn(C(C)(C)C)c3ncnc(N)c23)cc1` [PP1], for which, in the assay on EL4 GD2^positive cells, the “Effect of p56Lck inhibitor on mAb 3F8-induction of Ca++ fluxes” value was “markedly decreased; also recorded: partially abolished”.
